For eleven compounds, MIC results are on record in patent US9115149B2, “Heterocyclic compounds as inhibitors of fatty acid biosysnthesis for bacterial infections” (Vitas Pharma Research Private Limited, priority 2011, dated 2015).

The structures appear in SMILES notation. Converted amounts (≈) assume the structure as drawn. Like-named read-outs stand apart in the source and are kept apart here.

Common to all, as to assay type: cell-based
For assay [1], the system named is Staphylococcus aureus (ATCC29213). The assay is described as follows: MIC by microbroth dilution, methicillin sensitive S. aureus. As to conditions: read-out: Minimum inhibitory concentration (MIC) Staphylococcus aureus (ATCC29213). As to the method: (§1) Shown below are the biological activities of representative compounds of the invention. The compounds were tested by the microbroth dilution method (National committee for Clinical Laboratory Standards, M07-A8, Volume 29, 2009) to determine the Minimum Inhibitory Concentration (MIC) against Methicillin sensitive and resistant Staphylococcus aureus. The MICs in the presence of 10% BSA was also tested. Further, select compounds were tested for metabolic stability using mouse liver microsomes based on published protocols (Journal of Biological Sciences, 2008, 8, 1110-1114).
On the technique in general: Dilution methods test growth across graded concentrations, often in twofold steps.

Assay [2] has as its system Methicillin resistant Staphylococcus aureus (ATCC 33591). The experiment in a line: MIC by microbroth dilution, methicillin resistant S. aureus. As to conditions: ATCC33591, read-out: Minimum inhibitory concentration (MIC) Methicillin resistant Staphylococcus aureus (ATCC 33591). The method, then:
as §1

The subject of assay [3] is Bacillus subtilis (ΔFabI, ΔFabL; Pxylose SaFabI). The experiment in a line: Target specificity: MIC in B. subtilis expressing S. aureus FabI under xylose inducible promoter. As to the method:
To test for target specificity, the MIC was determined in a Bacillus subtilis strain in which the two FabI homologues (FabI and FabL) were deleted and replaced with S. aureus FabI (Sa FabI) under a Xylose inducible promoter. By varying the amount of xylose in the growth medium, the expression of FabI was proportionately modified. Compounds specifically targeting Sa FabI show an increased MIC when higher amounts of FabI are present in the cell (high Xylose concentrations). In contrast, when FabI levels are low, the cell becomes hypersusceptible, reducing the MIC (low Xylose concentrations). […] Shown below are data for target specificity.

Where [4] appears, read: read-out: MIC in the presence of 0.005% Xylose (low Xylose concentration).
The mark [5] stands for this setting: read-out: MIC in the presence of 0.5% Xylose (high Xylose concentration).

As for `CN(Cc1cc2ccccc2n1C)C(=O)/C=C/c1cnc2[nH]c(=O)[nH]c2c1` [VT-02-00002, (E)-N-methyl-N-((1-methyl-1H-indol-2-yl)methyl)-3-(2-oxo-2,3-dihydro-1H-imidazo[4,5-b]pyridin-6-yl)acrylamide], the MIC in assay [1] was determined as 1 µg/mL (≈ 2.77 µM); in assay [2], 2 µg/mL (≈ 5.53 µM); in assay [3] (setting [4]), 0.06 µg/mL; in assay [3] (setting [5]) it was 1 µg/mL.
For `CN(Cc1cc2ccccc2n1C)C(=O)/C=C/c1cnc2[nH]nc(N)c2c1` [VT-02-00029a, (E)-3-(3-amino-1H-pyrazolo[3,4-b]pyridin-5-yl)-N-methyl-N-((1-methyl-1H-indol-2-yl)methyl)acrylamide], the MIC is 1 µg/mL (≈ 2.77 µM) in assay [1], 2 µg/mL (≈ 5.55 µM) in assay [2], 0.03 µg/mL in assay [3] (setting [4]) and 0.5 µg/mL in assay [3] (setting [5]).
Turning to `CN(Cc1cc2ccccc2n1C)C(=O)/C=C/c1cnc2[nH]c3ccccc3c2c1` [VT-02-00034, (E)-N-methyl-N-((1-methyl-1H-indol-2-yl)methyl)-3-(9H-pyrido[2,3-b]indol-3-yl)acrylamide], the MIC in assay [1] and in assay [2] was greater than 64 µg/mL each time.
Take `CN(Cc1cc2ccccc2n1C)C(=O)/C=C/c1ccc2[nH]c3ncccc3c2c1` [VT-02-00034a, (E)-N-methyl-N-((1-methyl-1H-indol-2-yl)methyl)-3-(9H-pyrido[2,3-b]indol-6-yl)acrylamide]: the MIC in assay [1] and in assay [2] was greater than 32 µg/mL throughout.
For `CN1CCC(Nc2n[nH]c3ncc(/C=C/C(=O)N(C)Cc4cc5ccccc5n4C)cc23)CC1` [VT-02-00037, (E)-N-methyl-N-((1-methyl-1H-indol-2-yl)methyl)-3-(3-(1-methylpiperidin-4-ylamino)-1H-pyrazolo[3,4-b]pyridin-5-yl)acrylamide], the MIC in assay [1] and in assay [2] was greater than 32 µg/mL throughout.
For `CCNc1n[nH]c2ncc(/C=C/C(=O)N(C)Cc3cc4ccccc4n3C)cc12` [VT-02-00038, (E)-3-(3-(ethylamino)-1H-pyrazolo[3,4-b]pyridin-5-yl)-N-methyl-N-((1-methyl-1H-indol-2-yl)methyl)acrylamide], the MIC in assay [1] and in assay [2] was greater than 32 µg/mL each time.
On to `CN(Cc1cc2ccccc2n1C)C(=O)/C=C/c1cnc2c(c1)CC(=O)N2` [VT-02-00050, (E)-N-methyl-N-((1-methyl-1H-indol-2-yl)methyl)-3-(2-oxo-2,3-dihydro-1H-pyrrolo[2,3-b]pyridin-5-yl)acrylamide], for which the MIC in assay [1] and in assay [2] was 2 µg/mL (≈ 5.55 µM) each time.
On to `CCn1c(=O)[nH]c2ncc(/C=C/C(=O)N(C)Cc3nc4ccccc4s3)cc21` [VT-02-00054, (E)-N-(benzo[d]thiazol-2-ylmethyl)-3-(1-ethyl-2-oxo-2,3-dihydro-1H-imidazo[4,5-b]pyridin-6-yl)-N-methylacrylamide], for which the MIC in assay [1] and in assay [2] was greater than 16 µg/mL in each case.
With `CN(Cc1cc2ccccc2n1C)C(=O)/C=C/c1cnc2[nH]c(=O)oc2c1` [VT-02-00058, (E)-N-methyl-N-((1-methyl-1H-indol-2-yl)methyl)-3-(2-oxo-2,3-dihydrooxazolo[4,5-b]pyridin-6-yl)acrylamide], the MIC in assay [1] and in assay [2] was greater than 16 µg/mL each time.
Regarding `CN(Cc1cc2ccccc2n1C)C(=O)/C=C/c1cnc2[nH]cnc2c1` [VT-02-00060, (E)-3-(3H-imidazo[4,5-b]pyridin-6-yl)-N-methyl-N-((1-methyl-1H-indol-2-yl)methyl)acrylamide], the MIC in assay [1] and in assay [2] was greater than 16 µg/mL throughout.
With `Cn1c2c(c3ccccc31)CN(C(=O)/C=C/c1cnc3c(c1)C1(CCC1)C(=O)N3)CC2` [VT-02-00082, (E)-5′-(3-(5-methyl-3,4-dihydro-1H-pyrido[4,3-b]indol-2(5H)-yl)-3-oxoprop-1-enyl)spiro[cyclobutane-1,3′-pyrrolo[2,3-b]pyridin]-2′(1′H)-one], the MIC in assay [1] and in assay [2] was greater than 8 µg/mL throughout.
